Literature values, collected in patent US12295926B1, “Modified release gamma-hydroxybutyrate formulations having improved pharmacokinetics” (Flamel Ireland Limited, priority 2022, dated 2025).
Where two headings read alike, the source gives them in different places.

Assays:
[1] = system: rat; conditions: 2-year
[2] = system: mouse; conditions: 2-year
[3] = 4.5 g oral
[4] = system: bacteria
[5] = system: rats; conditions: 0, 100, 300, or 900 mg/kg/day
[6] = system: male and female rats; conditions: 150, 350, or 1,000 mg/kg/day
[7] = system: mammalian cells
[8] = system: pregnant rats; conditions: 150, 350, or 1,000 mg/kg/day
[9] = system: rat; conditions: in vivo
[10] = system: rats; conditions: highest dose tested (1,000 mg/kg/day)
[11] = molecular target: T1, CYP1A2 (Homo sapiens, UniProt P05177); conditions: up to 3 mM (378 mcg/mL)
T1 sequence (P05177 1-516): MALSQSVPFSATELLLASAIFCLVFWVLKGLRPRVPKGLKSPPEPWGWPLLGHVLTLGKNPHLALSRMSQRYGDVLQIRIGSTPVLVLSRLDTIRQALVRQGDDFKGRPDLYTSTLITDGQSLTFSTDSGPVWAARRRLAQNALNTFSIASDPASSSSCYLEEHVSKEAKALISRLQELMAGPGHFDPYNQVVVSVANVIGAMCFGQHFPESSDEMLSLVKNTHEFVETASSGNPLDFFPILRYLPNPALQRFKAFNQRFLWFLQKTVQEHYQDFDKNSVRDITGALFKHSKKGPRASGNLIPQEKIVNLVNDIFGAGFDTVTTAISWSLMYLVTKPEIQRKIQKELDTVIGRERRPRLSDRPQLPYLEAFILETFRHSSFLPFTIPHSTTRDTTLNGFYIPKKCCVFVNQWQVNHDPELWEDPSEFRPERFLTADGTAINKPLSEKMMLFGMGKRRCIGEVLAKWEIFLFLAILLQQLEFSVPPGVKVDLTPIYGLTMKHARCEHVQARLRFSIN

[12] = molecular target: CYP2C19 (Homo sapiens, UniProt P33261); conditions: up to 3 mM (378 mcg/mL)
[13] = molecular target: CYP2E1 (Homo sapiens, UniProt P05181); conditions: up to 3 mM (378 mcg/mL)
[14] = molecular target: CYP2C9 (Homo sapiens, UniProt P11712); conditions: up to 3 mM (378 mcg/mL)
[15] = molecular target: CYP2D6 (Homo sapiens, UniProt P10635); conditions: up to 3 mM (378 mcg/mL)
[16] = 6 g per day with ibuprofen 800 mg four times per day
[17] = system: pregnant rabbits; conditions: 300, 600, or 1,200 mg/kg/day
[18] = system: plasma proteins; conditions: 3 mcg/mL to 300 mcg/mL
[19] = 6 g per day with diclofenac 50 mg twice per day
[20] = system: CYP3A; conditions: up to 3 mM (378 mcg/mL)
[21] = not given; remark: listed apart in the source
[22] = system: rats

CYP2C19, sequence (P33261 whole entry): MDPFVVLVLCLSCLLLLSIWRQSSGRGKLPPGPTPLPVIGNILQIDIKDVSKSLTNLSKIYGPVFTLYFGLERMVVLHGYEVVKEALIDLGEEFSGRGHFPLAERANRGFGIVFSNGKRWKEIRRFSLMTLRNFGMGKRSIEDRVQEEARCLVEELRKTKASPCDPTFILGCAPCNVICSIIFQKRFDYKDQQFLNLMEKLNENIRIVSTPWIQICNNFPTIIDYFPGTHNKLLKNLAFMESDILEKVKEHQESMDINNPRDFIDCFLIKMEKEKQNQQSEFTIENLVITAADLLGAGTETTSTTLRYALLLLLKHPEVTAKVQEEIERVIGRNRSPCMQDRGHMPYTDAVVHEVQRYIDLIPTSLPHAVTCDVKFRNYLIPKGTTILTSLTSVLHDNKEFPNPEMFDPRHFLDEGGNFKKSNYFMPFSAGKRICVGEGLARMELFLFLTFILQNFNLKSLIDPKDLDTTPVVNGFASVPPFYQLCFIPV
CYP2C9, sequence (P11712 whole entry): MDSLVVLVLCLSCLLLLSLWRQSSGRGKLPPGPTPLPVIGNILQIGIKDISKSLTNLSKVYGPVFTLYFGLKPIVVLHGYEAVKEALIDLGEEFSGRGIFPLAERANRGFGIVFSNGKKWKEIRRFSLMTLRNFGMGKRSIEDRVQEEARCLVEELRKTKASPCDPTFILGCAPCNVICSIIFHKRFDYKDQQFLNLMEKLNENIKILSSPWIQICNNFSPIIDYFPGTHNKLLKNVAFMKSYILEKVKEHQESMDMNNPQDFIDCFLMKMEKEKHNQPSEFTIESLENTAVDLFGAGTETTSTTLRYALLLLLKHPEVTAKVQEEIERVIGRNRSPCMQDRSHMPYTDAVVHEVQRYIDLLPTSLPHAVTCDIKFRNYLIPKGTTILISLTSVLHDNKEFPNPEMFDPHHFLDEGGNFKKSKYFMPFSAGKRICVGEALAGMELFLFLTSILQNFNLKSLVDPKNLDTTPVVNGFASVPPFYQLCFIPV
CYP2E1, sequence (P05181 whole entry): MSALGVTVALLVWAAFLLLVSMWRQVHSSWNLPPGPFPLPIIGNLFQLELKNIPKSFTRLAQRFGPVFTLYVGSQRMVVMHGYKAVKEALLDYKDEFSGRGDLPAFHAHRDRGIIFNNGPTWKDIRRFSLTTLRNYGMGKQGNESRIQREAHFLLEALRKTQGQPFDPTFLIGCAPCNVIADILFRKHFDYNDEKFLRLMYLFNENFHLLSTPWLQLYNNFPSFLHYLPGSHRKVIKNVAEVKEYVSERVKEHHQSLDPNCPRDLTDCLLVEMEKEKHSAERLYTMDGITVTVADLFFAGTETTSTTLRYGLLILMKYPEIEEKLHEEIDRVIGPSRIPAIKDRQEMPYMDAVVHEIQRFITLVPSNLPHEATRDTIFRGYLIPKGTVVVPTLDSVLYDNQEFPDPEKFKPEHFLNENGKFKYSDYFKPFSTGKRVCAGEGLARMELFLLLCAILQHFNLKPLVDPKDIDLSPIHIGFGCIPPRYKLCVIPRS
CYP2D6, sequence (P10635 whole entry): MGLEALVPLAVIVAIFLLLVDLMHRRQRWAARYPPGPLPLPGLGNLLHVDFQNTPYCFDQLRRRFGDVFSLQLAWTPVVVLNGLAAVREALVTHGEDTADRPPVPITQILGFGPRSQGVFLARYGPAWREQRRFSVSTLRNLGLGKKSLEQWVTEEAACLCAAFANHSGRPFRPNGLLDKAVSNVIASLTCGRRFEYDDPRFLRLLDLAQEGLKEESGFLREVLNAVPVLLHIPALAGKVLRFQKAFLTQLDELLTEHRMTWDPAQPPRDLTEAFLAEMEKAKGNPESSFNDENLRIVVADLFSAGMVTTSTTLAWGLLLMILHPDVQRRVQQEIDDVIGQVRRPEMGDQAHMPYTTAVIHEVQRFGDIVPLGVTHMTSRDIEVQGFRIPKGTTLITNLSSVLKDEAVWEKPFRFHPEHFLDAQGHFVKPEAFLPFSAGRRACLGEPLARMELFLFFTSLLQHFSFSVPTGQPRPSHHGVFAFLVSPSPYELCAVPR

SMILES: O=C1CCCO1 [gamma-butyrolactone]
- Carcinogenic activity [1]: no clear evidence of carcinogenic activity
- Carcinogenic activity [2]: no clear evidence of carcinogenic activity

SMILES: O=C([O-])CCCO.[Na+] [sodium oxybate, sodium 4-hydroxybutanoate]
- Apparent volume of distribution (in vivo): 0.19 to 0.384 L/kg
- Elimination half-life (in vivo): 30 to 60 min
- Unchanged drug in human urine (within 6 to 8 hours after dosing): less than 5%
- Gender differences in pharmacokinetics of GHB [3]: no gender differences
- Bacterial gene mutation [4]: negative
- Mortality in juvenile rats [5]: mortality was observed at the two highest doses tested
- Effects on fertility [6]: no adverse effects on fertility
- Chromosomal aberration [7]: negative
- Developmental toxicity [8]: no clear evidence of developmental toxicity
- Micronucleus [9]: negative
- Pre- and post-natal effects [10]: increased stillbirths and decreased offspring postnatal viability and body weight gain
- Inhibition of CYP1A2 [11]: does not significantly inhibit
- Inhibition of CYP2C19 [12]: does not significantly inhibit
- Inhibition of CYP2E1 [13]: does not significantly inhibit
- Inhibition of CYP2C9 [14]: does not significantly inhibit
- Inhibition of CYP2D6 [15]: does not significantly inhibit
- Systemic exposure to GHB on co-administration [16]: comparable systemic exposure to GHB
- Developmental toxicity [17]: no clear evidence of developmental toxicity
- Bound to plasma proteins [18]: less than 1%
- Systemic exposure to GHB on co-administration [19]: no significant differences in systemic exposure to GHB
- Inhibition of CYP3A [20]: does not significantly inhibit
- AUC in cirrhotic patients vs normal hepatic function ([21]; 25 mg/kg oral): double
- Apparent oral clearance ([21]; Child's Class A): 4.5 mL/min/kg
- Apparent oral clearance ([21]; Child's Class C): 4.1 mL/min/kg
- Apparent oral clearance ([21]; healthy adults): 9.1 mL/min/kg
- Plasma exposure (AUC) relative to humans at the MRHD ([22]; highest dose tested): 2 times
- Tumors ([22]; up to 1,000 mg/kg/day for 83 (males) or 104 (females) weeks): no increase in tumors
